Values after ≈ are worked out from the molar mass of the structure shown.
Columns and labels:
[1] = test system: Leishmania donovani; experiment: Antileishmanial activity against Leishmania donovani promastigotes assessed as parasite growth inhibition incubated for 72 hrs by Alamar blue assay; assay type: functional, organism-based
[2] = test system: K562; experiment: Cytotoxicity against human K562 cells assessed as cell growth inhibition; assay type: functional, cell-based
[3] = test system: Plasmodium falciparum; experiment: Antimalarial activity against chloroquine resistant Plasmodium falciparum W2 assessed as parasite growth inhibition incubated for 72 hrs by Malstat reagent assay; assay type: functional, organism-based; conditions: W2, 72 h
[4] = test system: Plasmodium falciparum; experiment: Antimalarial activity against chloroquine sensitive Plasmodium falciparum D6 assessed as parasite growth inhibition incubated for 72 hrs by Malstat reagent assay; assay type: functional, organism-based; conditions: D6, 72 h
[5] = Cytotoxicity against African green monkey Vero cells assessed as cell growth inhibition incubated for 48 hrs by neutral red dye based assay; assay type: toxicity; conditions: African green monkey (Chlorocebus sabaeus)
[6] = test system: PC-3; experiment: Cytotoxicity against human PC-3 cells assessed as cell growth inhibition; assay type: functional, cell-based
[7] = test system: NCI-H460; experiment: Cytotoxicity against human NCI-H460 cells assessed as cell growth inhibition; assay type: functional, cell-based
[8] = test system: MCF7; experiment: Cytotoxicity against human MCF7 cells assessed as cell growth inhibition; assay type: functional, cell-based
[9] = Cytotoxicity against human HeLa cells assessed as cell growth inhibition; assay type: toxicity, cell-based; conditions: read-out: ID50 (the source's name)
[10] = test system: L5178Y; experiment: Cytotoxicity against mouse L5178Y cells assessed as cell growth inhibition; assay type: functional, cell-based
[11] = test system: SF-268; experiment: Cytotoxicity against human SF-268 cells assessed as cell growth inhibition; assay type: functional, cell-based
[12] = test system: HepG2; experiment: Cytotoxicity against human HepG2 cells assessed as cell growth inhibition; assay type: functional, cell-based
[13] = test system: Bel-7402; experiment: Cytotoxicity against human Bel-7402 cells assessed as cell growth inhibition; assay type: functional, cell-based
[14] = test system: SGC-7901; experiment: Cytotoxicity against human SGC-7901 cells assessed as cell growth inhibition; assay type: functional, cell-based
[15] = target: Telomerase reverse transcriptase (Homo sapiens, UniProt O14746); experiment: Inhibition of human telomerase
Telomerase reverse transcriptase, sequence (O14746 whole entry): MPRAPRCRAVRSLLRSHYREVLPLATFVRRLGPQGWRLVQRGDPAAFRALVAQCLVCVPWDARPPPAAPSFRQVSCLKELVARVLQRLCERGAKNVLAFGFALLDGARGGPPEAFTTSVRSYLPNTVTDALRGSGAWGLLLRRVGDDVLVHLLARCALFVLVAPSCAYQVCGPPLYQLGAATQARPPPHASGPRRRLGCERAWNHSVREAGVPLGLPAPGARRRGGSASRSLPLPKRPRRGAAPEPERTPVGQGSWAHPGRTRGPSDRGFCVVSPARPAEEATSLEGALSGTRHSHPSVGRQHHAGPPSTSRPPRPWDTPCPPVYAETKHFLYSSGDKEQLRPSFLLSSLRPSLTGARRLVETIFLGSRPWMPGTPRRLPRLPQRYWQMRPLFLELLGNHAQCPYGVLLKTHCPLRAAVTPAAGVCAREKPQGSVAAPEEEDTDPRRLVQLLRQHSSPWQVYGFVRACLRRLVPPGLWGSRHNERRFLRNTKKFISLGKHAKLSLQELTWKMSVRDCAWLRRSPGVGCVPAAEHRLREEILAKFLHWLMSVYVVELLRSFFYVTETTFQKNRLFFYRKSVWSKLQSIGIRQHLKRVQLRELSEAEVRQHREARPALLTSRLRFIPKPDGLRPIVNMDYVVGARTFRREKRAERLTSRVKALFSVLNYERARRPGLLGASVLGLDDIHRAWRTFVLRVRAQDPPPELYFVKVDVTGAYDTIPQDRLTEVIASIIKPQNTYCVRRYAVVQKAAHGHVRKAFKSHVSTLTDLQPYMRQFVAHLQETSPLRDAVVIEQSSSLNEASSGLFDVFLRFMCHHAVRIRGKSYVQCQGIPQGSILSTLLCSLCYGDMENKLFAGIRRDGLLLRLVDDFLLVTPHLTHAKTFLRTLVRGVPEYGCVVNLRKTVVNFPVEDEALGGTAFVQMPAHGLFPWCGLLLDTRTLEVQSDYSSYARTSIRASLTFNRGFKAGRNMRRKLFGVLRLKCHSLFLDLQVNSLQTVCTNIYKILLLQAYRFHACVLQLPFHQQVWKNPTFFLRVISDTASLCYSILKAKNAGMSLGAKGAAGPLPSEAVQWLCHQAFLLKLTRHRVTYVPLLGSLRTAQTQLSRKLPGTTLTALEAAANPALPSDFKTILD

Molecule O=C1C[C@@H](O)[C@]2(O)c3c(ccc(O)c31)-c1ccc(O)c3c1[C@@H]2[C@H]1O[C@@H]1[C@@H]3O has an IC50 [1] of 2.5 µg/mL (≈ 6.79 µM).
With O=C1C[C@H](O)[C@@H]2c3c(ccc(O)c31)-c1ccc(O)c3c1[C@@]2(O)[C@H](O)CC3=O the IC50 [2] was 53.5 µM.
O=C1C[C@H](O)[C@H]2c3c(ccc(O)c31)-c1ccc(O)c3c1[C@@]2(O)[C@H](O)CC3=O showed an IC50 [3] of 3.6 µg/mL (≈ 9.77 µM), an IC50 [4] of 4.2 µg/mL (≈ 11.4 µM) and an IC50 at 48 h [5] of 9.8 µM. It also gave an IC50 [1] of 4.4 µg/mL (≈ 11.9 µM).
With O=C1CC[C@]2(O)c3c(ccc(O)c31)-c1ccc(O)c3c1[C@H]2[C@H]1O[C@H]1[C@@H]3O the IC50 [1] was 3.1 µg/mL (≈ 8.8 µM).
Molecule O=C1CC[C@]2(O)c3c(ccc(O)c31)-c1ccc(O)c3c1[C@H]2[C@H]1O[C@H]1C3=O has an IC50 [6] of 14.3 µM, an IC50 [7] of 1.9 µM and an IC50 [8] of 1.9 µM. For the same molecule, the GI50 [9] was 0.5 µg/mL (≈ 1.43 µM), the IC50 [10] was 6.2 µM and the IC50 [11] was 1.9 µM. The IC50 [12] was 1.9 µM.
In the case of O=C1CCc2c3c4c(cc(O)cc4c4ccc(O)c1c24)[C@H](O)CC3, the IC50 [2] is reported as 83.1 µM, the IC50 [13] is reported as 40.9 µM and the IC50 [14] is reported as 27.5 µM.
For O=C1C[C@H](O)[C@@H]2c3c(ccc(O)c31)-c1ccc(O)c3c1[C@@]2(O)CCC3=O [ALTERTOXIN I], the GI50 [9] was 20 µg/mL (≈ 56.8 µM).
O=C1C[C@H](O)[C@@H]2c3c(ccc(O)c31)-c1ccc(O)c3c1[C@@]2(O)C=CC3=O showed an IC50 [15] of 30 µM, an IC50 [7] of 1.9 µM and an IC50 [8] of 1.9 µM. The IC50 [11] was 1.9 µM and the IC50 [12] was 1.9 µM.
In the case of CO[C@H]1CC(=O)c2c(O)ccc3c2[C@@]1(O)[C@@H]1c2c-3ccc(O)c2[C@@H](O)[C@@H]2O[C@@H]21, the IC50 [3] is reported as 2.5 µg/mL (≈ 6.54 µM), the IC50 [4] is reported as 3.2 µg/mL (≈ 8.37 µM) and the IC50 at 48 h [5] is reported as 12.5 µM. It also gave an IC50 [1] of 1.4 µg/mL (≈ 3.66 µM).

Source: ChEMBL document CHEMBL5126634, “Naturally Occurring Partially Reduced Perylenequinones from Fungi” (J Nat Prod, 2022)
